Test results published in US4032525A, “Dibenz[b,f]oxepin derivatives” (Hoffmann-La Roche Inc., priority 1974, dated 1977).

System: rats
Assay: "Pole Climbing" Test (conditioned / unconditioned reaction)
Assay type: in vivo
Settings: Rattus norvegicus, po; rats, p.o.; read-out: ED50 (blocking of the conditioned reaction)
From the text: II. "Pole Climbing" Test This test provides information about behavior reactions of rats. Rats are trained to avoid, by climbing up a vertical pole in the test chamber, an electrical impulse-- unconditioned impulse-- released via the […] floor some seconds after an acoustic signal-- conditioned impulse. The blocking of the conditioned reaction is designated by the parameter ED50 (mg/kg. p.o.) and the blocking of the unconditioned reaction is designated by the parameter ED10 (mg/kg. p.o.). The parameter ED50 --blocking of the conditioned reaction-- provides a measure of the strength of the neuroleptic activity of the derivative under investigation.
Compound Cc1ccc2c(c1)CC(N1CCN(C)CC1)c1cc(C)ccc1O2 (stereo not drawn) [A] has an ED50 of 3.2 mg/kg.
With Cc1ccc2c(c1)CC(N1CCN(CCN3CCOC3=O)CC1)c1cc(C)ccc1O2 (stereo not drawn) [D] the ED50 was 7.6 mg/kg.
Work on O=C1OCCN1CCN1CCN(C2Cc3cc(Cl)ccc3Oc3ccc(F)cc32)CC1 (stereo not drawn) [E] yielded an ED50 of 3.5 mg/kg.
Work on Cc1ccc2c(c1)CC(N1CCN(CCN3CCOC3=O)CC1)c1cc(F)ccc1O2 (stereo not drawn) [F] yielded an ED50 of 7 mg/kg.
With O=C1OCCN1CCN1CCN(C2Cc3cc(Cl)ccc3Oc3ccccc32)CC1 (stereo not drawn) [G] the ED50 was 15.5 mg/kg.
N#CCCN1CCN(C2Cc3cc(Cl)ccc3Oc3ccccc32)CC1 (stereo not drawn) [H] showed an ED50 of 14 mg/kg.

Same assay, conditions: in words, relative to chlorpromazine
In the case of O=C1OCCN1CCN1CCN(C2Cc3cc(Cl)ccc3Oc3ccccc32)CC1 (stereo not drawn) [G], the “neuroleptic strength of action compared with chlorpromazine” value is reported as “somewhat lower than that of chlorpromazine”.
In the case of N#CCCN1CCN(C2Cc3cc(Cl)ccc3Oc3ccccc32)CC1 (stereo not drawn) [H], the “neuroleptic strength of action compared with chlorpromazine” value is reported as “somewhat lower than that of chlorpromazine” and the “quality (selectivity) of the neuroleptic activity compared with chlorpromazine” value is reported as “this superiority is particularly evident”.

Same assay, conditions: rats, p.o.; larger quotient = greater selectivity of neuroleptic activity
For Cc1ccc2c(c1)CC(N1CCN(C)CC1)c1cc(C)ccc1O2 (stereo not drawn) [A], the “Quotient ED10 (blocking of the unconditioned reaction)/ED50 (blocking of the conditioned reaction)” value (“Quotient ED10” below) was 3.1.
With CN(C)CCCN1c2ccccc2Sc2ccc(Cl)cc21 [Chlorpromazine, reference compound] the “Quotient ED10” value was 2.5.
With Cc1ccc2c(c1)CC(N1CCN(CCN3CCOC3=O)CC1)c1cc(C)ccc1O2 (stereo not drawn) [D] the “Quotient ED10” value was 5.6.
For O=C1OCCN1CCN1CCN(C2Cc3cc(Cl)ccc3Oc3ccc(F)cc32)CC1 (stereo not drawn) [E], the “Quotient ED10” value was 2.8.
In the case of Cc1ccc2c(c1)CC(N1CCN(CCN3CCOC3=O)CC1)c1cc(F)ccc1O2 (stereo not drawn) [F], the “Quotient ED10” value is reported as 5.1.
For O=C1OCCN1CCN1CCN(C2Cc3cc(Cl)ccc3Oc3ccccc32)CC1 (stereo not drawn) [G], the “Quotient ED10” value was 3.5.
With N#CCCN1CCN(C2Cc3cc(Cl)ccc3Oc3ccccc32)CC1 (stereo not drawn) [H] the “Quotient ED10” value was over 21.

System: rats
Assay: Catalepsy Test
Assay type: in vivo
Settings: in words, relative to chlorpromazine
Procedure: (§1) A cataleptic activity-- "wax rigidity", i.e., abnormally long retention of a fixed body position--in central depressant or neuroleptically active compounds is considered to be an undesirable side-effect and is produced by motor disorders. Representative dibenz[b,f]oxepin derivatives provided by this invention were administered intraperitoneally to rats. The animals are considered to be cataleptic when the homolateral extremities remain in a crossed position for at least 10 seconds. The number of cataleptic animals is noted every 30 minutes for 6 hours. The ED50 is the dose at which 50% of the animals show catalepsy.
In the case of Cc1ccc2c(c1)CC(N1CCN(CCN3CCOC3=O)CC1)c1cc(C)ccc1O2 (stereo not drawn) [D], the “cataleptic side-effect compared with chlorpromazine” value is reported as “about one half to about one eighth of the undesired cataleptic side-effect of chlorpromazine”.
With Cc1ccc2c(c1)CC(N1CCN(CCN3CCOC3=O)CC1)c1cc(F)ccc1O2 (stereo not drawn) [F] the “cataleptic side-effect compared with chlorpromazine” value was “about one half to about one eighth of the undesired cataleptic side-effect of chlorpromazine”.
In the case of O=C1OCCN1CCN1CCN(C2Cc3cc(Cl)ccc3Oc3ccccc32)CC1 (stereo not drawn) [G], the “cataleptic side-effect compared with chlorpromazine” value is reported as “about one half to about one eighth of the undesired cataleptic side-effect of chlorpromazine”.
For N#CCCN1CCN(C2Cc3cc(Cl)ccc3Oc3ccccc32)CC1 (stereo not drawn) [H], the “cataleptic side-effect compared with chlorpromazine” value was “less than one fifth of the undesired cataleptic side-effect of chlorpromazine”.

System: not listed separately
Assay: Catalepsy Test
Assay type: in vivo, rats
Settings: rat, in vivo, ip; rats, intraperitoneally; observed every 30 minutes for 6 hours; read-out: ED50 (dose at which 50% of the animals show catalepsy)
Procedure: as §1
For CN(C)CCCN1c2ccccc2Sc2ccc(Cl)cc21 [Chlorpromazine, reference compound], the ED50 at 6 h was 6 mg/kg.
In the case of Cc1ccc2c(c1)CC(N1CCN(CCN3CCOC3=O)CC1)c1cc(C)ccc1O2 (stereo not drawn) [D], the ED50 at 6 h is reported as 14 mg/kg.
Work on Cc1ccc2c(c1)CC(N1CCN(CCN3CCOC3=O)CC1)c1cc(F)ccc1O2 (stereo not drawn) [F] yielded an ED50 at 6 h of 30 mg/kg.
For O=C1OCCN1CCN1CCN(C2Cc3cc(Cl)ccc3Oc3ccccc32)CC1 (stereo not drawn) [G], the ED50 at 6 h was 50 mg/kg.
For N#CCCN1CCN(C2Cc3cc(Cl)ccc3Oc3ccccc32)CC1 (stereo not drawn) [H], the ED50 at 6 h was over 30 mg/kg.

System: homovanillic acid
Assay: Determination of Homovanillic Acid (HVA) in rat brain
Assay type: in vivo, rats
Settings: po, 2 h, dose 2 mg/kg p.o., rats killed two hours after dosing, untreated rats fixed at 100%, read-out: Increase in HVA
Work on Cc1ccc2c(c1)CC(N1CCN(C)CC1)c1cc(C)ccc1O2 (stereo not drawn) [A] yielded a response vs control in vivo at 2 mg/kg of 235%.

Same assay, conditions: po, 2 h, dose 3.5 mg/kg p.o., rats killed two hours after dosing, untreated rats fixed at 100%, read-out: Increase in HVA
With OCCCN1CCN(C2Cc3cc(Cl)ccc3Oc3ccccc32)CC1 (stereo not drawn) [B] the response vs control in vivo at 3.5 mg/kg was 260%.

Same assay, conditions: po, 2 h, dose 5 mg/kg p.o., rats killed two hours after dosing, untreated rats fixed at 100%, read-out: Increase in HVA
O=C1OCCN1CCN1CCN(C2Cc3cc(Cl)ccc3Oc3ccc(Cl)cc32)CC1 (stereo not drawn) [C] showed a response vs control in vivo at 5 mg/kg of 365%.

Same assay, conditions: po, 2 h, dose 10 mg/kg p.o., rats killed two hours after dosing, untreated rats fixed at 100%, read-out: Increase in HVA
In the case of O=C1OCCN1CCN1CCN(C2Cc3cc(Cl)ccc3Oc3ccc(F)cc32)CC1 (stereo not drawn) [E], the response vs control in vivo at 10 mg/kg is reported as 260%.

Same assay, conditions: po, 2 h, dose 15 mg/kg p.o., rats killed two hours after dosing, untreated rats fixed at 100%, read-out: Increase in HVA
Work on Cc1ccc2c(c1)CC(N1CCN(CCN3CCOC3=O)CC1)c1cc(C)ccc1O2 (stereo not drawn) [D] yielded a response vs control in vivo at 15 mg/kg of 335%.

Same assay, conditions: po, 2 h, dose 50 mg/kg p.o., rats killed two hours after dosing, untreated rats fixed at 100%, read-out: Increase in HVA
With Cc1ccc2c(c1)CC(N1CCN(CCN3CCOC3=O)CC1)c1cc(F)ccc1O2 (stereo not drawn) [F] the response vs control in vivo at 50 mg/kg was 265%.
Compound O=C1OCCN1CCN1CCN(C2Cc3cc(Cl)ccc3Oc3ccccc32)CC1 (stereo not drawn) [G] has a response vs control in vivo at 50 mg/kg of 225%.
With N#CCCN1CCN(C2Cc3cc(Cl)ccc3Oc3ccccc32)CC1 (stereo not drawn) [H] the response vs control in vivo at 50 mg/kg was 275%.

Same assay, conditions: po, 2 h, read-out: Increase in HVA
With CN(C)CCCN1c2ccccc2Sc2ccc(Cl)cc21 [Chlorpromazine, reference compound] the response vs control in vivo at 20 mg/kg was 320%.

System: not listed separately
Assay: in vivo
Settings: mouse, po
Cc1ccc2c(c1)CC(N1CCN(C)CC1)c1cc(C)ccc1O2 (stereo not drawn) [A] gave an LD50 at 24 h of 900 mg/kg.
Compound OCCCN1CCN(C2Cc3cc(Cl)ccc3Oc3ccccc32)CC1 (stereo not drawn) [B] has an LD50 at 24 h of 375 mg/kg.
Work on O=C1OCCN1CCN1CCN(C2Cc3cc(Cl)ccc3Oc3ccc(Cl)cc32)CC1 (stereo not drawn) [C] yielded an LD50 at 24 h of 900 mg/kg.
Compound Cc1ccc2c(c1)CC(N1CCN(CCN3CCOC3=O)CC1)c1cc(C)ccc1O2 (stereo not drawn) [D] has an LD50 at 24 h of 750 mg/kg.
With O=C1OCCN1CCN1CCN(C2Cc3cc(Cl)ccc3Oc3ccc(F)cc32)CC1 (stereo not drawn) [E] the LD50 at 24 h was 900 mg/kg.
Compound Cc1ccc2c(c1)CC(N1CCN(CCN3CCOC3=O)CC1)c1cc(F)ccc1O2 (stereo not drawn) [F] has an LD50 at 24 h of 450 mg/kg.
O=C1OCCN1CCN1CCN(C2Cc3cc(Cl)ccc3Oc3ccccc32)CC1 (stereo not drawn) [G] gave an LD50 at 24 h of 450 mg/kg.
With N#CCCN1CCN(C2Cc3cc(Cl)ccc3Oc3ccccc32)CC1 (stereo not drawn) [H] the LD50 at 24 h was 1500 mg/kg.
